Results from article PMC5182053 (Science Advances, 2016).

Biological target: α-enolase (Homo sapiens, UniProt P06733)
Experiment: microscale thermophoresis with labeled recombinant protein
Type: binding

α-enolase, sequence (P06733 2-434): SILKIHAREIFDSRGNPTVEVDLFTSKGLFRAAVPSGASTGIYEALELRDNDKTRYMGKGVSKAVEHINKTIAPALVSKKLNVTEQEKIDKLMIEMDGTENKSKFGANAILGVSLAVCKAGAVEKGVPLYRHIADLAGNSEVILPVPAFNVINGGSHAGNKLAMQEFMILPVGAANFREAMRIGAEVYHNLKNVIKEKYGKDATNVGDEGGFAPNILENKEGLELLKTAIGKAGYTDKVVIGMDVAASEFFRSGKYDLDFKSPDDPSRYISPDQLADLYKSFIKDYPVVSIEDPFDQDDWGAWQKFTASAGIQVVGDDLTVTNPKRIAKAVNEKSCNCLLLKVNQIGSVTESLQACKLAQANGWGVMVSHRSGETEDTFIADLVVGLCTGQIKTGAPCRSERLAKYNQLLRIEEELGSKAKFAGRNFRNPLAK

Compound: CCOC(=O)Oc1c(OC)cc(C(=O)O[C@@H]2C[C@@H]3CN4CCc5c([nH]c6cc(OC)ccc56)[C@H]4C[C@@H]3[C@H](C(=O)OC)[C@H]2OC)cc1OC [syrosingopine]
- Kd: 1.25 µM
